Where a SMILES comes first, the peptide text is derived from it.
Test: physchem
Details: pKa

| SMILES | pKa |
| --- | --- |
| Cc1cc(=O)oc2cc(O[C@@H]3O[C@H](CO)[C@@H](O)[C@H](O)[C@H]3O)ccc12 | 2.82 |
| CN(C)CCO[C@]1(c2ccccc2)C[C@H]2CC[C@]1(C)C2(C)C | 9.61 |
| CO[C@@H]1[C@@H](O[C@@H]2O[C@H](C)[C@@H](O)[C@H](N(C)C)[C@H]2O)[C@@H](CC=O)C[C@@H](C)C(=O)/C=C/[C@@H]2O[C@H]2C[C@@H](C)OC(=O)C[C@H]1OC(C)=O | 8.44 |
| N[C@@H](Cc1c[nH]c2ccccc12)C(=O)N[C@@H](Cc1ccccc1)C(=O)O (H-Trp-Phe-OH) | 3.18 |

Test: physchem
Details: not given

| SMILES | pKa |
| --- | --- |
| CC(Cc1ccc(O)c(O)c1)(NN)C(=O)O (stereo unspecified) | 3.5 |
| CCCCC1CCN(CCCC(=O)c2ccccc2C)CC1 | 7.85 |
| CC1CCN(CC(=O)Nc2nc(-c3ccccc3)cs2)CC1 | 10.5 |
| NC(=O)C1CCN(CC(=O)Nc2nc(-c3ccccc3)cs2)CC1 | 10.2 |
| Cc1ccc(C)c(N2CCN(C3CCCC(C)C3)CC2)c1 (stereo unspecified) | 7.16 |
| O=C(O)c1ccccc1C(=O)Nc1nc(-c2ccccc2)cs1 | 3.4 |
| COc1ccc(C(=O)CCC(=O)O)cc1 | 4.7 |
| CC1CN(c2c(F)c(N)c3c(=O)c(C(=O)O)cn(C4CC4)c3c2F)CC(C)N1 (stereo unspecified) | 6.1 |
| Cc1cnc(NC(=O)CN2CCCCC2)s1 | 10.6 |
| O=C(O)c1ccccc1-c1ncc(-c2ccccc2)o1 | 2.9 |
| O=C(CN1CCCCC1)Nc1nc(-c2ccc(Cl)cc2)cs1 | 10.4 |
| CCOC(=O)c1csc(NC(=O)CN2CCCCC2)n1 | 9.9 |
| Cc1nc(NC(=O)CCCC(=O)O)sc1C | 2.5 |
| O=C(O)CSCC(=O)Nc1nc(-c2ccccc2)c(-c2ccccc2)s1 | 4 |
| O=C(O)c1cc(-c2ccccc2)nc(O)n1 | 2.5 |
| FC(F)(F)c1cccc(N2CCN(C3C4CC5CC(C4)CC3C5)CC2)c1 (stereo unspecified) | 7.45 |
| Nc1cc(-c2ccccc2)nc2ccc(Br)cc12 | 7.4 |
| Nc1cc(-c2ccccc2)nc2ccc(Cl)cc12 | 7.4 |
| NCc1cc(-c2ccccc2)nc2ccccc12 | 8.37 |
| O=C(CN1CCCCC1)Nc1ncc(Cc2cccc3ccccc23)s1 | 10.5 |
| c1cnc(N2CCN(C3CC4CCC3C4)CC2)nc1 (stereo unspecified) | 8 |
| CC[C@]12CCCN3CCc4c(n(c5ccccc45)[C@@](O)(C(=O)OC)C1)C32 (stereo partly specified) | 7.9 |
| Cc1c(Cl)cccc1-n1ncc(C(=O)Nc2nccs2)c1C1CCNCC1 | 9.4 |
| Cc1ccc(C)c(N2CCN(C3C4CC5CC(C4)CC3C5)CC2)c1 (stereo unspecified) | 7.6 |

| SMILES | pKa |
| --- | --- |
| Cc1ccc(C)c(N2CCN(C3CCC(C)C3)CC2)c1 (stereo unspecified) | 7.5 |
| Cc1ccc(C)c(N2CCN(C3CCCCCC3)CC2)c1 | 7.54 |
| CC1CCC(N2CCN(c3ccccc3F)CC2)CC1 (stereo unspecified) | 7.4 |
| Cc1ccc(-n2ncc(C(=O)Nc3nccs3)c2C2CCNCC2)cc1C | 9.5 |
| Cc1cccc(-n2ncc(C(=O)Nc3nccs3)c2C2CCNCC2)c1 | 9.5 |
| COc1ccc2nc(NC(=O)CN3CCC(C)CC3)sc2c1 | 10 |
| CC1CCN(CC(=O)Nc2ncc(Cc3cccc4ccccc34)s2)CC1 | 10.6 |
| CN(C)CCNC(=O)c1cc(-c2ccccc2)nc2ccccc12 | 8.3 |
| COc1cc(CN2CCC3(C=Cc4ccccc43)CC2)cc(OC)c1OC | 8.4 |
| COc1ccc2nc(-c3ccccc3)cc(N)c2c1 | 8.7 |
| COc1ccc2nc(NC(=O)CN3CCCCC3)sc2c1 | 10 |
| CC1OC(O[C@H]2/C=C/C=C/C=C/C=C/C=C/C=C/C=C/[C@H](C)[C@@H](O)[C@@H](C)[C@H](C)OC(=O)C[C@H](O)C[C@H](O)CC[C@@H](O)[C@H](O)C[C@H](O)C[C@]3(O)C[C@H](O)[C@@H](C(=O)O)[C@H](C2)O3)C(O)C(N)C1O (stereo partly specified) | 3.1 |
| O=C1NCN(c2ccccc2)C12CCN(CCCC(c1ccc(F)cc1)c1ccc(F)cc1)CC2 | 7.7 |
| O=C(N[C@H]1CCCC[C@H]1C(=O)O)c1ccccc1 | 3.3 |
| Nc1c2c(nc3ccccc13)-c1ccccc1CC2 | 8.1 |
| C=CC1=C(C(=O)O)N2C(=O)[C@@H](NC(=O)/C(=N\O)c3csc(N)n3)[C@H]2SC1 | 3.35 |
| CN(C)CCC=C1c2ccccc2CCc2ccccc21 [AMITRIPTYLINE] | 8.2 |
| CN(C)CCC(c1ccc(Br)cc1)c1ccccn1 (stereo unspecified) [BROMPHENIRAMINE] | 10.1 |
| Cn1nnnc1SCC1=C(C(=O)O)N2C(=O)[C@@H](NC(=O)[C@H](O)c3ccccc3)[C@H]2SC1 [CEFAMANDOLE] | 3.4 |
| CCN(CC)CCOC(=O)c1ccc(N)cc1Cl [CHLOROPROCAINE] | 9 |
| CN(C)CCCN1c2ccccc2CCc2ccc(Cl)cc21 [CLOMIPRAMINE] | 9.1 |
| CN1CCN(C2=Nc3cc(Cl)ccc3Nc3ccccc32)CC1 [CLOZAPINE] | 7.8 |
| CN(C)CCC=C1c2ccccc2C=Cc2ccccc21 [CYCLOBENZAPRINE] | 8.24 |
| O=C(CCCN1CC=C(n2c(=O)[nH]c3ccccc32)CC1)c1ccc(F)cc1 [DROPERIDOL] | 7.6 |

| SMILES | pKa |
| --- | --- |
| CCCCOc1ccc(C(=O)CCN2CCCCC2)cc1 [DYCLONINE] | 9 |
| C=C(CC)C(=O)c1ccc(OCC(=O)O)c(Cl)c1Cl [ETHACRYNIC ACID] | 3.1 |
| CC(NCCC(c1ccccc1)c1ccccc1)c1ccccc1 (stereo unspecified) [FENDILINE] | 9.3 |
| CC(C(=O)O)c1ccc(-c2ccccc2)c(F)c1 (stereo unspecified) [FLURBIPROFEN] | 4.3 |
| O=C(CCCN1CCC(O)(c2ccc(Cl)cc2)CC1)c1ccc(F)cc1 [HALOPERIDOL] | 8.5 |
| CCn1cc(C(=O)O)c(=O)c2cc(F)c(N3CCNC(C)C3)c(F)c21 (stereo unspecified) [LOMEFLOXACIN] | 5.74 |
| CN1CCCCC1CCN1c2ccccc2Sc2ccc([S+](C)[O-])cc21 (stereo unspecified) [MESORIDAZINE] | 9.5 |
| CC(CN(C)C)CN1c2ccccc2Sc2ccccc21 (stereo unspecified) [METHYLPROMAZINE] | 8.5 |
| Clc1ccc2c(c1)N=C(N1CCNCC1)c1ccccc1N2 [N-DESMETHYLCLOZAPINE] | 8.9 |
| O=C(O)c1cccnc1 [NIACIN] | 2.4 |
| CCn1cc(C(=O)O)c(=O)c2cc(F)c(N3CCNCC3)cc21 [NORFLOXACIN] | 6.05 |
| O=C1CCCN1CC#CCN1CCCC1 [OXOTREMORINE] | 8.4 |
| O=c1[nH]c2ccccc2n1C1CCN(CCCC(c2ccc(F)cc2)c2ccc(F)cc2)CC1 [PIMOZIDE] | 7.45 |
| CC(CN1c2ccccc2Sc2ccccc21)N(C)C (stereo unspecified) [PROMETHAZINE] | 8.7 |
| CCOc1cc(CC(=O)N[C@@H](CC(C)C)c2ccccc2N2CCCCC2)ccc1C(=O)O [REPAGLINIDE] | 3.75 |
| CN[C@H]1CC[C@@H](c2ccc(Cl)c(Cl)c2)c2ccccc21 [SERTRALINE] | 8 |
| CC(C(=O)O)c1ccc(C(=O)c2cccs2)cc1 (stereo unspecified) [SUPROFEN] | 4.3 |
| CC/C(=C(\c1ccccc1)c1ccc(OCCN(C)C)cc1)c1ccccc1 [TAMOXIFEN] | 10 |
| CN(C/C=C/C#CC(C)(C)C)Cc1cccc2ccccc12 [TERBINAFINE] | 7.12 |
| CC(C)(C)c1ccc(C(O)CCCN2CCC(C(O)(c3ccccc3)c3ccccc3)CC2)cc1 (stereo unspecified) [TERFENADINE] | 8.5 |
| CCCCNc1ccc(C(=O)OCCN(C)C)cc1 [TETRACAINE] | 8.6 |
| CC(CN(C)C)CN1c2ccccc2CCc2ccccc21 (stereo unspecified) [TRIMIPRAMINE] | 8.5 |
| Cc1ccc(/C(=C\CN2CCCC2)c2ccccn2)cc1 [TRIPROLIDINE] | 9.25 |
| CCOC(=O)C1=C[C@]2(CC)CCCN3CCc4c(n1c1ccccc41)[C@@H]32 [VINPOCETINE] | 7.1 |

Reference: ChEMBL document CHEMBL2448811, “Comparison of the accuracy of experimental and predicted pKa values of basic and acidic compounds” (Pharm Res, 2013)
